Experimental data reported in US20220272975A1, “COMPOSITIONS AND METHODS FOR TREATING PLANT PARASITES” (Arizona Board Regents on Bealf of the University of Arizona, priority 2019, published 2022).
In brackets after ≈: the same amount, converted by molar mass. Read-outs that look alike come from different tables or passages of the source. Marks after values point to notes of the source that are not given here.

Columns and labels:
[1] = test system: HFF cells (human foreskin normal cells); test: Human cytotoxicity (MTT) assay; type: cell-based; conditions: after 72 hours; for % Inh. HFF: Conc. 200 µM
Procedure: (§1) This Example describes human cytotoxicity of individual SMs. […] Three cancer cell lines (NCI-H460 human non-small cell lung cancer, SF-268 human central nervous system glioma, and MCF-7 human breast cancer) were used that are routinely use as “sentinels” (if a compound is cytotoxic, then at least one of these are usually killed). HFF cells (human foreskin normal cells, not cancer cells) was also used as a “control”.
(§2) Tested concentrations of these SMs increased at 50, 100 uM, then at 200 uM (Table 7).

[2] = test system: MCF-7 human breast cancer; test: Human cytotoxicity (MTT) assay; type: cell-based; conditions: for % Inh. MCF-7: after 72 hours, Conc. 200 µM
Procedure: as §1, §2

[3] = test system: NCI-H460 human non-small cell lung cancer; test: Human cytotoxicity (MTT) assay; type: cell-based; conditions: for % Inh. NCI-H460: Conc. 200 µM
Procedure: as §1, §2

[4] = test system: SF-268 human central nervous system glioma; test: Human cytotoxicity (MTT) assay; type: cell-based; conditions: for % Inh. SF-268: after 72 hours, Conc. 200 µM
Procedure: as §1, §2

[5] = test system: Meloidogyne incognita; test: In vitro nematicidal/nematistatic assay on the infective stage (J2 juveniles) of the root-knot nematode; type: in vivo; conditions: for Concentration at which nematicidal activity was observed: observational data; for EC50 / LC50: Meloidogyne incognita
Procedure: (§3) Time points for observations were at 24, 48, and 72 h after initial exposure of each SM against J2 juveniles of M. incognita and T. semipenetrans under in vitro conditions.
(§4) After assessments of individual SM toxicity, the combined toxic effects of these SMs was assayed in order to understand interaction between each SM. […] In addition, the additive index values were calculated and indicated in each Table.
(§5) When analyzing the results of combination effects of the SMs, the statistical method described by DeLorenzo and Serrano (2003) was used as follows: S=(Am/Ai)+(Bm/Bi). Where: S=sum of biological activity or total toxicant unit (TTU); Am=LC50 for compound A in the mixture; Ai=LC50 for compound A in the individual effect; Bm=LC50 for compound B in the mixture; Bi=LC50 for compound B in the individual effect. S values will be used to calculate an additive index. If S≤1.0, then the additive index=(1/S)−1.0.

[6] = test system: Tylenchulus semipenetrans; test: In vitro nematicidal/nematistatic assay on the infective stage (J2 juveniles) of the citrus nematode; type: in vivo; conditions: for Concentration at which nematicidal activity was observed: observational data; for EC50 / LC50: Tylenchulus semipenetrans
Procedure: as §3, §4, §5

[7] = test system: Caenorhabditis elegans; test: whole plant or invertebrate
Procedure: (§6) Laboratory assays were carried out to assess the nematicidal activity of the above-mentioned secondary metabolites (SMs) on the infective stage (i.e. the one that infects the roots of plants) of: 1) the root-knot nematode, (M. incognita); and 2) the citrus nematode (T semipenetrans). The effect of these SMs on five beneficial soil nematode species microbivores and those involved in nutrient cycling) was also tested to make sure these compounds only affect plant parasites (only for individual SM experiments).
(§7) Five non-target nematode species includes:
(§8) two free-living bacterivores: Caenorhabditis elegans and Rhabditis blumi.
(§9) The susceptibility of test population to these SMs was assessed by constructing a dosage-mortality curve in which the dosage was plotted against the percentage mortality at a given period of time (FIGS. 1-3).
(§10) Concentration-response data for each concentration of single Photorhabdus-derived SMs and the mixtures were pooled and subjected to Probit regression analysis using the Polo Plus program (LeOra software, Petaluma, Calif.). The LC or EC values, along with corresponding 95% confidence intervals, were estimated for each single SM and SM mixture at each exposure time, depending on the experimental setting. Statistically significant differences in LC or EC values among SMs at a given exposure time period within or among nematode species were interpreted based on non-overlapping of 95% confidence intervals. For the toxicity data visualization, the relationship between percent mortality or temporary quiescence and concentration was described by a sigmoidal curve, which is fitted by the logistical function, using the statistical software package Sigmaplot for Windows, version 14.0 (Systat Software Inc., San Jose, Calif., USA).

[8] = test system: Rhabditis blumi; test: whole plant or invertebrate
Procedure: as §6, §7, §8, §9, §10

[9] = test system: Steinernema carpocapsae; test: whole plant or invertebrate
Procedure: as §6, §7
(§11) three entomopathogenic species: Steinernema carpocapsae, H bacteriophora, and H sonorensis.
as §9
Concentration-response data for each concentration of single Photorhabdus-derived SMs and the mixtures were pooled and subjected to Probit regression analysis using the Polo Plus program (LeOra software, Petaluma, Calif.). The LC or EC values, along with corresponding 95% confidence intervals, were estimated for each single SM and SM mixture at each exposure time, depending on the experimental setting. […]

[10] = test system: H. bacteriophora; test: whole plant or invertebrate; conditions: Heterorhabditis bacteriophora, read-out: EC50 (effective concentration causing 50% reversible nematode paralysis, temporary quiescence)
Procedure: as §6, §7, §11, §9, §10

[11] = test system: H. sonorensis; test: animal or person; conditions: read-out: EC50 (effective concentration causing 50% reversible nematode paralysis, temporary quiescence)
Procedure: as §6, §7, §11, §9, §10

[12] = in vitro
Procedure: as §6, §7, §11, §9, §10

[13] = M. incognita, in vitro, 24 h exposure
[14] = read-out: LC50 (lethal concentration causing 50% nematode death), Table 5: individual compounds or compound mixtures, J2 juveniles of M. incognita, in vitro
[15] = T. semipenetrans, in vitro, 24 h exposure
[16] = read-out: LC50 (lethal concentration causing 50% nematode death), Table 6: individual compounds or compound mixtures, J2 juveniles of T. semipenetrans, in vitro

## COc1cccc2c1C(=O)c1c(O)c3c(c(O)c1C2=O)C[C@@](O)(C(=O)CO)C[C@@H]3O[C@H]1C[C@H](N)[C@H](O)[C@H](C)O1 [Doxorubicin, reference compound]
[1]; Homo sapiens, HFF, Conc. 1 μM (+ control)
  inhibition at 1 µM: 64.9%
[2]; Homo sapiens, MCF7, after 72 hours, Conc. 1 μM (+ control), read-out: % Inh. MCF-7
  inhibition at 1 µM: 64.1%
[3]; Homo sapiens, NCI-H460, MTT, after 72 hours, Conc. 1 μM (+ control), read-out: % Inh. NCI-H460
  inhibition at 1 µM: 97.2%
[4]; Homo sapiens, SF-268, after 72 hours, Conc. 1 μM (+ control), read-out: % Inh. SF-268
  inhibition at 1 µM: 86.7%

## c1ccc2[nH]ccc2c1 [ID, indole]
[5]; M. incognita
  Concentration at which nematistatic activity (reversible quiescence) was induced: > 40 µg/mL
  Concentration at which nematicidal activity was observed: ≥ 300 µg/mL
[5]; [13]
  EC50 (effective concentration causing 50% reversible nematode paralysis, temporary quiescence): 56.3 (52.9-59.6) μg mL^−1
[5]; read-out: EC50 (concentration required to immobilize 50% of nematode population), M. incognita
  EC50: 56 µg/mL
[5]; read-out: EC50 (effective concentration causing 50% reversible nematode paralysis, temporary quiescence), M. incognita, in vitro, 24 h exposure
  EC50: 56.3 µg/mL
[5]; [14]
  LC50: 307 µg/mL
[5]; J2 juveniles of M. incognita (RKN), 48 h exposure, read-out: EC50 (95% confidence interval), reversible paralysis
  EC50: 61.3 µg/mL
[5]; J2 juveniles of M. incognita (RKN), 72 h exposure, read-out: EC50 (95% confidence interval), reversible paralysis
  EC50: 76.3 µg/mL
[5]; M. incognita, ID alone and SM mixtures, exposure time not given, read-out: LC50
  LC50: 307 µg/mL
[6]; T. semipenetrans
  Concentration at which nematistatic activity (reversible quiescence) was induced: > 10 µg/mL
  Concentration at which nematicidal activity was observed: ≥ 300 µg/mL
[6]; [15]
  EC50 (effective concentration causing 50% reversible nematode paralysis, temporary quiescence): 37.1 (28.7-43.4) μg mL^−1
[6]; read-out: EC50 (concentration required to immobilize 50% of nematode population), T. semipenetrans
  EC50: 37 µg/mL
[6]; read-out: EC50 (effective concentration causing 50% reversible nematode paralysis, temporary quiescence), T. semipenetrans, in vitro, 24 h exposure
  EC50: 37.1 µg/mL
[6]; [16]
  LC50: 388 µg/mL
[6]; J2 juveniles of T. semipenetrans, 48 h exposure, read-out: EC50 (95% confidence interval), reversible paralysis
  EC50: 66.2 µg/mL
[6]; J2 juveniles of T. semipenetrans, 72 h exposure, read-out: EC50 (95% confidence interval), reversible paralysis
  EC50: 68.3 µg/mL
[6]; T. semipenetrans, ID alone and SM mixtures, exposure time not given, read-out: LC50
  LC50: 388 µg/mL
[7]; Caenorhabditis elegans, read-out: EC50 (effective concentration causing 50% reversible nematode paralysis, temporary quiescence)
  EC50: 159 µg/mL (≈ 1360 µM)
[8]; Metarhabditis blumi, read-out: EC50 (effective concentration causing 50% reversible nematode paralysis, temporary quiescence)
  EC50: 37 µg/mL (≈ 316 µM)
[9]; Steinernema carpocapsae, read-out: EC50 (effective concentration causing 50% reversible nematode paralysis, temporary quiescence)
  EC50: > 400 µg/mL
[10]
  EC50: > 400 µg/mL
[11]
  EC50: > 400 µg/mL
[1]
  % Inh. HFF: 4.64%
[2]
  % Inh. MCF-7: 5.31%
[3]; MTT, after 72 hours
  % Inh. NCI-H460: 30.5%
[3]; at 200 uM
  Toxicity against NCI-H460: 30.5%
[4]
  % Inh. SF-268: 20.2%

## O=C(O)CC/C=C/c1ccccc1 [PPA, (4E)-5-phenylpent-4-enoic acid]
[5]; [13]
  LC50 (lethal concentration causing 50% nematode death): 44.4 (38.8-48.6) μg mL^−1
[5]; M. incognita
  Concentration at which nematicidal activity was observed: ≥ 40 µg/mL
[5]; read-out: LC50 (concentration required to kill 50% nematode population), M. incognita, 24 h of exposure
  LC50: 44 µg/mL
[5]; read-out: LC50 (lethal concentration causing 50% nematode death), M. incognita, in vitro, 24 h exposure
  LC50: 44.4 µg/mL
[5]; [14]
  LC50: 44.4 µg/mL
[5]; J2 juveniles of M. incognita (RKN), 48 h exposure, read-out: LC50 (95% confidence interval)
  LC50: 42 µg/mL
[5]; J2 juveniles of M. incognita (RKN), 72 h exposure, read-out: LC50 (95% confidence interval)
  LC50: 38.9 µg/mL
[6]; [15]
  LC50 (lethal concentration causing 50% nematode death): 66.3 (50.7-73.4) μg mL^−1
[6]; T. semipenetrans
  Concentration at which nematicidal activity was observed: ≥ 40 µg/mL
[6]; read-out: LC50 (concentration required to kill 50% nematode population), T. semipenetrans, 24 h of exposure
  LC50: 66 µg/mL
[6]; read-out: LC50 (lethal concentration causing 50% nematode death), T. semipenetrans, in vitro, 24 h exposure
  LC50: 66.3 µg/mL
[6]; [16]
  LC50: 66.3 µg/mL
[6]; J2 juveniles of T. semipenetrans (CN), 48 h exposure, read-out: LC50 (95% confidence interval)
  LC50: 59.8 µg/mL
[6]; J2 juveniles of T. semipenetrans (CN), 72 h exposure, read-out: LC50 (95% confidence interval)
  LC50: 42.2 µg/mL
[7]; C. elegans, in vitro
  LC50 (lethal concentration causing 50% nematode death): 278 µg/mL (≈ 1580 µM)
[8]; R. blumi, in vitro
  LC50 (lethal concentration causing 50% nematode death): 346 µg/mL (≈ 1960 µM)
[9]; S. carpocapsae, in vitro
  LC50 (lethal concentration causing 50% nematode death): >400^e μg mL^−1
[12]; H. bacteriophora
  LC50: > 400 µg/mL
[12]; H. sonorensis, whole H. sonorensis nematodes (non-target entomopathogenic)
  LC50: > 400 µg/mL
[1]
  % Inh. HFF: 22.6%
[2]
  % Inh. MCF-7: −5.35%
[3]; MTT, after 72 hours
  % Inh. NCI-H460: 3.97%
[4]
  % Inh. SF-268: 7.76%

## O=C(O)/C=C/c1ccccc1 [TCA, trans-cinnamic acid]
[1]
  % Inh. HFF: 10.8%
[2]
  % Inh. MCF-7: 2.59%
[4]
  % Inh. SF-268: 13.0%
